The record followed here is patent US7968526B2, “Antisense oligonucleotides directed to ribonucleotide reductase R2 and uses thereof in the treatment of cancer” (Lorus Therapeutics Inc., priority 2003, dated 2011).

Holding throughout (format): in vivo, human cells in mice
Series [1] relates to Human taxol-resistant promyelocytic leukaemia cells (HL-60). Kind of series: HL-60 taxol-resistant promyelocytic leukaemia tumour in SCID mice (2.7). The note with it: SEQ ID NO:1 10 mg/kg i.v. every other day. How it is done: BxPC-3 is a gemcitabine resistant call line. […] Gemcitabine was administered intravenously every three days at a dose of 100 mg/kg. Antitumour activities were estimated by the inhibition of tumour volume, which was measured with caliper. Each point represents mean tumour volume calculated from 10 animals per experimental group. […] Hela S3 is a hydroxyurea resistant cell line. […] Hydroxyurea was administered intraperitoneally every day at a dose of 250 mg/kg for 10 days. Cisplatin was administered intravenously once a week for three weeks at a dose of 4 mg/kg. Antitumour activities were estimated by the inhibition of tumour volume, which was measured with caliper. Each point represents mean tumour volume calculated from 10 animals per experimental group. […] Cisplatin was administered intravenously once a week for three weeks at a dose of 4 mg/kg. Taxol was administered intravenously once a week for three weeks at a dose of 10 mg/kg. Antitumour activities were estimated by the inhibition of tumour volume, which was measured with caliper. Each point represents mean tumour volume calculated from 10 animals per experimental group. […] Taxol was administered i.p. once a week at a dose of 10 mg/kg. Antitumour activities were estimated by the inhibition of tumour volume (FIG. 12A), which was measured with calipers. Each point represents mean tumour volume calculated from 10 animals per experimental group. Animals were sacrificed and tumour weights taken at the end of the study (FIG. 12C). […] Cisplatin was administered intravenously once a week for four weeks at a dose of 4 mg/kg. Taxol was administered intravenously once a week for four weeks at a dose of 20 mg/kg. Antitumour activities were estimated by the inhibition of tumour volume, which was measured with caliper. Each point represents mean tumour volume calculated from 9-10 animals per experimental group. […] Cisplatin was administered intravenously once a week for four weeks at a dose of 4 mg/kg. Antitumour activities were estimated by the inhibition of tumour volume, which was measured with caliper. Each point represents mean tumour volume calculated from 10 animals per experimental group. At the end of the study the animals were sacrificed and tumours weighed. […] Taxol was administered i.p. once a week at a dose of 10 mg/kg. Anti-tumour activity was estimated by the inhibition of tumour volume, which was measured with caliper. Each point represents mean tumour volume calculated from 10 animals per experimental group. […] Antitumour activities were estimated by the inhibition of tumour volume, which was measured with caliper. Each point represents mean tumour volume calculated from 10 animals per experimental group. Tumour weights were measured after animals were sacrificed at the end of the treatment. […]

The test system of series [2] is MDA-MB-231 human breast cancer cells. Kind of series: MDA-MB-231 breast tumour xenograft in CD-1 nude mice, combination with taxol or doxorubicin (1.7). The settings on record: doxorubicin 5 mg/kg i.v. weekly. As to the method: After 52 days the mice were sacrificed and the tumours weighed. […] Mitoxantrone was administered intravenously once at the beginning of the treatments at a dose of 2 mg/kg (FIG. 4A) or once a week for four weeks at a reduced dose of 0.8 mg/kg (FIG. 4B). All treatments were stopped at day 50 (FIG. 4A) or 48 (FIG. 4B), respectively. […] Mitoxantrone was administered intravenously once at the beginning of the treatments at a dose of 2 mg/kg (FIG. 5A) or once a week for four weeks at a reduced dose of 0.8 mg/kg (FIG. 5B). All treatments were stopped at day 42 (FIG. 5A) or 38 (FIG. 5B), respectively. […] A2058 is a metastatic melanoma cell line. […] All treatments were stopped at day 24. […] Taxol was administered intravenously once a week at a dose of 10 mg/kg for three (FIG. 7A) or four weeks (FIG. 7C). Doxorubicin was administered intravenously once a week at a dose of 5 mg/kg for first three weeks (FIG. 7A) or for two weeks (FIG. 7C). All treatments were stopped at day 33 (FIG. 7A) or at day 26 (FIG. 7C), respectively. […] In FIG. 7C, antitumour activities were estimated by the inhibition of tumour volume, which was measured with calipers. Each point represents mean tumour volume calculated from 10 animals per experimental group. […] Taxol was administered intravenously once a week for first three weeks and intraperitoneally once a week for next two weeks at a dose of 10 mg/kg. Cisplatin was administered intravenously once a week for first three weeks and intraperitoneally once a week for next two weeks at a dose of 4 mg/kg. All treatments were stopped at day 40. Antitumour activities were estimated by the inhibition of tumour volume, which was measured with caliper. Each point represents mean tumour volume calculated from 9 animals per experimental group.

Series [3] concerns A498 human kidney cancer cells. Put plainly: A498 kidney tumour xenograft in SCID mice, controls and chemotherapeutics (Example 7). The note with it: oligonucleotides 10 mg/kg/2 days i.v., 5-FU 13 mg/kg/day×5, vinblastine 1 mg/kg/week, gemcitabine 100 mg/kg/week. The text has this: CD-1 athymic female nude mice, BALB/c nu/nu nude mice, SCID, and SCID beige mice were purchased from Charles River Laboratories (Montreal, Canada) and experiments were typically initiated when the mice were 6-7 weeks old. […] Each experimental group typically contained 10 mice. After the size of tumour reached a mean tumour volume of 50-100 mm^3, treatment was initiated. […] Anti-tumour activity was estimated by the measurement of tumour volume with a calliper at two-three day intervals. Tumour volume was calculated by a formula L×W×H/2, where L indicates length, W indicates width and H indicates height. Within 24 hours after the last treatment, the animals were sacrificed and tumour and body weights were measured. Results of statistical analyses of the data are presented as P values in the figure legends.
Three additional treatment groups received: 5-FU (13 mg/kg/day×5), vinblastine (1 mg/kg/week) and gemcitabine (100 mg/kg/week). […] Caliper measurements at 1-week intervals were used to calculate tumour volumes. Each point in FIG. 28C represents mean tumour volume calculated from 10 animals per experimental group (with the exception of SEQ ID NO: 1 which was 8 animals). […] After 54 days the mice were sacrificed and the A498 tumours weighed. Each bar represents the mean tumour weight and standard error calculated for each treatment group.

“Also recorded” adds a separate entry of the source.

As to “5′-GGCTAAATCGCTCCACCAAG-3′ (all phosphorothioate, sugars by position and methylation of C not given here) [SEQ ID NO: 1, fully phosphorothioated antisense oligonucleotide that hybridizes to the coding region of R2 mRNA]”, the “Tumour weight as % of saline control” value is reported as 38% in series [1] (HL-60 (leukemia), Taxol resistant, SCID, Taxol 10 mg/kg i.p. weekly) and 12.6% in series [2] (MDA-MB-231 (breast), CD-1, SEQ ID NO:1 10 mg/kg i.v. every other day, Taxol 10 mg/kg i.v. weekly). In addition, the “Antitumour effect (FIG. 15)” value in series [1] (HL-60 taxol-resistant, SCID mice, taxol 10 mg/kg i.p. weekly) was “significant reduction of tumour weight compared to saline control”. In series [2] (MDA-MB-231, CD-1 nude mice, oligonucleotides 10 mg/kg i.v. every other day, taxol 10 mg/kg), the “Antitumour effect (tumour weight / volume, FIG. 7)” value is on record as “delay of tumour growth compared to saline control in all three experiments; also recorded: superior to the inhibitory effects observed with taxol or doxorubicin alone”. For the same substance, the “Effect on tumour growth (volume and weight)” value in series [3] is “dramatic inhibition in growth of Caki-1 and A498 renal tumours; also recorded: superior to any of these compounds”.
